Test results from US6015818A, “Quinoline derivatives as bradykinin agonists” (Fujisawa Pharmaceutical Co., Ltd., priority 1996, dated 2000).

Legend:
[1] = test system: WI-38 PGE2 production; assay: Prostaglandin E2 (PGE2) production in human fibroblasts (WI-38); type: cell-based; settings: WI-38, 0.5 h, concentration: 1 × 10^-6 M, 30 minutes at 37° C., PGE2 by EIA, read-out: WI-38 PGE2 production increase ratio
Procedure: (II) Prostaglandin E2 (PGE2) production in human fibroblasts
The assay of PGE2 production was modified from the procedure described in The Journal of Biological Chemistry, 257, 8630-8633 (1982).
Human fibroblasts (WI-38, ATCC CCL75) were grown in Eagle's Minimum Essential Medium [E-MEM: ICN Biomedical Inc., Cat. No. 10-101-24 (47.6 g) with sodium bicarbonate (11.0 g), penicillin G potassium salt (0.5 g), streptomycin sulfate (0.5 g) in water (5000 ml) and 10% fetal bovine serum]. The cells were placed into the quiescent state after confluence was reached.
(b) Measurements of PGE2 production
WI-38 cells were seeded in 24-well plates at a density of 1×10^5 cells/well with 0.5 ml of E-MEM including 1% fetal bovine serum and were cultured for 1 day. The mediums in 24-well plates in which WI-38 cells were cultured were removed by aspiration and Hanks-bovine serum albumin buffer [Hanks-BSA Buffer: Hanks' balanced salts (4.9 g), sodium bicarbonate (0.1 g) and bovine serum albumin (protease free) (0.5 g)] was added thereto. […] Supernatant was collected, and PGE2 level included therein was measured by PGE2 EIA Kit (Cayman Chemical Co.).

[2] = target: T1, Bradykinin receptor (Cavia porcellus, UniProt O70526); assay: 3H-Bradykinin receptor binding (crude guinea pig ileum membrane); parameters: species or system guinea pigs; settings: 3H-Bradykinin 0.06 nM, room temperature, 60 minutes, read-out: Inhibition of ^3 H-Bradykinin binding: IC50
T1 construct: The ileum was removed and homogenized in buffer; from tissue; host or cells: guinea pig (male Hartley strain) ileum, crude membrane suspension
T1 sequence (O70526 1-372): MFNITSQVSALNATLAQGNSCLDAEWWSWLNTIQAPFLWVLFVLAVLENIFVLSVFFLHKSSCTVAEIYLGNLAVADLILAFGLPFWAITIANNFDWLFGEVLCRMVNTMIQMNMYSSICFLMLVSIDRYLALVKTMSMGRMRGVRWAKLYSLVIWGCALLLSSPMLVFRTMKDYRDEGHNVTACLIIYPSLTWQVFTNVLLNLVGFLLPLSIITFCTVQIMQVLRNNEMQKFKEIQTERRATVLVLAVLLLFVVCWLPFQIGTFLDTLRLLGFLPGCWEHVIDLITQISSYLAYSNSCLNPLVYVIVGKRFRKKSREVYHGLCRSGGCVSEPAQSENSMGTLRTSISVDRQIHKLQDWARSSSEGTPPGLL
Procedure: (I) ^3 H-Bradykinin receptor binding
(a) Crude ileum membrane preparation
Male Hartly strain guinea pigs were sacrificed by decapitation. The ileum was removed and homogenized in buffer (50 mM 2-[[tris(hydroxymethyl)methyl]amino]-1-ethanesulfonic acid (TES), 1 mM 1,10-phenanthroline pH 6.8). The homogenate was centrifuged (1000×g,20 minutes) to remove tissue clumps and the supernatant was centrifuges (100,000×g, 60 minutes) to yield a pellet. The pellet was resuspended in buffer (50 mM TES, 1 mM 1,10-phenanthroline, 140 mg/l bacitracin, 1 mM dithiothreiol, 0.1% bovine serum albumin pH 6.8) and homogenized with a glass-teflon homogenizer to yield suspension which was referred to as crude membrane suspension. The obtained membrane suspension was stored at -80° C. until use.
(b) ^3 H-Bradykinin binding to the membrane
The frozen crude membrane suspension was thawed. In binding assays, ^3 H-Bradykinin (0.06 nM) and drug were incubated with 50 μl of the membrane suspension at room temperature for 60 minutes in a final volume of 250 μ1. Separation of receptor-bound from free ^3 H-Bradykinin is achieved by immediate filtration under vacuum and washed three times with 5 ml of ice-cold buffer (50 mM Tris-HCl pH 7.5). Non-specific binding was defined as binding in the presence of 0.1 μM Bradykinin. The radioactivity retained on rinsed filters was determined by a liquid-scintillation counter.

SMILES | fold induction at 1 µM [1] | IC50 [2] [nM]
CNC(=O)c1ccc(C=CC(=O)NCC(=O)N(C)c2ccc(Cl)c(COc3cccc4c(OCc5ccccn5)cc(C)nc34)c2Cl)cc1 [Example 1-(2), 8-[2,6-dichloro-3-[N-[4-(methylcarbamoyl)cinnamoylglycyl]-N-methylamino]benzyloxy]-2-methyl-4-(2-pyridylmethoxy)quinoline] | 7.95 | 0.99
COc1nc2c(OCc3c(Cl)ccc(N(C)C(=O)CNC(=O)/C=C/c4ccc(NC(C)=O)nc4)c3Cl)cccc2n1Cc1ccccn1 [Example 9, 4-[3-[N-[(E)-3-(6-acetamidopyridin-3-yl)acryloylglycyl]-N-methylamino]-2,6-dichlorobenzyloxy]-2-methoxy-1-(2-pyridylmethyl)-1H-benzimidazole] | 10.8 | 6.3
